Test results taken from ChEMBL document CHEMBL5625174, “Are inhibitors of histone deacetylase 8 (HDAC8) effective in hematological cancers especially acute myeloid leukemia (AML) and acute lymphoblastic leukemia (ALL)?” (Eur J Med Chem, 2023).
Each block holds one molecule with its values, some of them ahead of it.

Columns and labels:
HeLa = assay: Growth inhibition of human HeLa cells incubated for 72 hrs by trypan blue assay; format: functional
MCF7 = assay: Antiproliferative activity against human MCF7 cells assessed as reduction in cell viability incubated for 24 hrs by MTT assay; format: functional, cell-based; conditions: MCF7, 24 h
MDA-MB-231 = assay: Antiproliferative activity against human MDA-MB-231 cells assessed as reduction in cell viability incubated for 24 hrs by MTT assay; format: functional, cell-based; conditions: MDA-MB-231, 24 h
Histone deacetylase 8 [1] = target: T1, Histone deacetylase 8 (Homo sapiens, UniProt Q9BY41); assay: Inhibition of HDAC8 (unknown origin) by fluorescence based assay
T1 sequence (Q9BY41 whole entry): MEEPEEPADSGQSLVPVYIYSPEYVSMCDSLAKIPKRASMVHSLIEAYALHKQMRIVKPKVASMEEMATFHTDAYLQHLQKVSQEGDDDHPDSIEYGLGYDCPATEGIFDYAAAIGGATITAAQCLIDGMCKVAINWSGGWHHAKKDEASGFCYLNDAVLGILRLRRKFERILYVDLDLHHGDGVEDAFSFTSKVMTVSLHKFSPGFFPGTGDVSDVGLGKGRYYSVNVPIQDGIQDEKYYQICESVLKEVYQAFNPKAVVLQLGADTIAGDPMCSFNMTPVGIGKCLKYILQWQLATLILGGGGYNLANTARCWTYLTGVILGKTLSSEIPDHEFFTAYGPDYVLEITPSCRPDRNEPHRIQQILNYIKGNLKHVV

Jurkat E6.1 [2] = assay: Cytotoxicity against human Jurkat E6.1 cells assessed as reduction in cell growth measured after 48 hrs by MTT assay; format: functional, cell-based; conditions: Jurkat E6.1, 48 h
U-937 = assay: Cytotoxicity against human U-937 cells assessed as reduction in cell viability; format: functional, cell-based
Histone deacetylase = assay: Inhibition of HDAC (unknown origin) using Fluoro-Substrate Peptide as substrate by fluorescence assay; format: protein assay, Homo sapiens
MOLT-4 [3] = assay: Cytotoxicity against human MOLT-4 cells assessed as reduction in cell viability; format: functional, cell-based
Jurkat E6.1 [4] = assay: Cytotoxicity against human Jurkat E6.1 cells assessed as reduction in cell viability; format: functional, cell-based
[5] = target: Matrix metalloproteinase-9 (Homo sapiens, UniProt P14780); assay: Inhibition of MMP-9 (unknown origin)
Neutrophil collagenase = Neutrophil collagenase (Homo sapiens, UniProt P22894); assay: Inhibition of MMP-8 (unknown origin)
[6] = target: Matrix metalloproteinase-14 (Homo sapiens, UniProt P50281); assay: Inhibition of MMP-14 (unknown origin)
[7] = target: 72 kDa type IV collagenase (Homo sapiens, UniProt P08253); assay: Inhibition of MMP-2 (unknown origin)
Histone deacetylase 8 [8] = target: T1, Histone deacetylase 8; assay: Inhibition of HDAC8 (unknown origin) using as Fluor-de-lys substrate by fluorescence based analysis
[9] = target: Macrophage metalloelastase (Homo sapiens, UniProt P39900); assay: Inhibition of MMP-12 (unknown origin)
Histone deacetylase 4 = Histone deacetylase 4 (Homo sapiens, UniProt P56524); assay: Inhibition of HDAC4 (unknown origin)
Jurkat [10] = assay: cells; format: functional; conditions: Homo sapiens
Description: Growth inhibition of human Jurkat cells

MOLT-4 [11] = assay: cells; format: functional; conditions: Homo sapiens, time 24 hrs
Description: Growth inhibition of human MOLT-4 cells measured after 24 hrs by MTT assay

[12] = target: T2, Polyamine deacetylase HDAC10 (Homo sapiens, UniProt Q969S8); assay: Inhibition of HDAC10 (unknown origin)
T2 sequence (Q969S8 whole entry): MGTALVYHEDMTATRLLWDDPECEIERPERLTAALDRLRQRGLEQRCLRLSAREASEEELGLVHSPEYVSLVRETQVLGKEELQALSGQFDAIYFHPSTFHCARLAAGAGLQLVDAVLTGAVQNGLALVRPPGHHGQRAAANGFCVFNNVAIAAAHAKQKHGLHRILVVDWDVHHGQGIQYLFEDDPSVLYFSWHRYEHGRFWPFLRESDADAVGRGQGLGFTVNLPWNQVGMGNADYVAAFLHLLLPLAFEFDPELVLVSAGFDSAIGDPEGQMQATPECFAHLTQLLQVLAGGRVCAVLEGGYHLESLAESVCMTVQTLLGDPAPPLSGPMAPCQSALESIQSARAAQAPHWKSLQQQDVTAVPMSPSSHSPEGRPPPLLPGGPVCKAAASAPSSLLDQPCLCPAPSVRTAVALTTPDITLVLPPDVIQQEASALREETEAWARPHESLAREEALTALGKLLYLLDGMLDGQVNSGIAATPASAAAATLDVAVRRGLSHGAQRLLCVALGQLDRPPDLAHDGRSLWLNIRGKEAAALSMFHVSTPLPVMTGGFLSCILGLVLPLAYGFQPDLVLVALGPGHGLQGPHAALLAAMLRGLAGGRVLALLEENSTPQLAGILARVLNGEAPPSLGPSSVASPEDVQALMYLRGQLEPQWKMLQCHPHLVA

THP-1 = assay: cells; format: functional; conditions: Homo sapiens
Description: Growth inhibition of human THP-1 cells

Jurkat [13] = assay: Cytotoxicity against human Jurkat cells assessed as reduction in cell viability measured after 24 hrs by Celltiter-Glo assay; format: functional, cell-based

Chain of Macrophage metalloelastase (P39900 whole entry): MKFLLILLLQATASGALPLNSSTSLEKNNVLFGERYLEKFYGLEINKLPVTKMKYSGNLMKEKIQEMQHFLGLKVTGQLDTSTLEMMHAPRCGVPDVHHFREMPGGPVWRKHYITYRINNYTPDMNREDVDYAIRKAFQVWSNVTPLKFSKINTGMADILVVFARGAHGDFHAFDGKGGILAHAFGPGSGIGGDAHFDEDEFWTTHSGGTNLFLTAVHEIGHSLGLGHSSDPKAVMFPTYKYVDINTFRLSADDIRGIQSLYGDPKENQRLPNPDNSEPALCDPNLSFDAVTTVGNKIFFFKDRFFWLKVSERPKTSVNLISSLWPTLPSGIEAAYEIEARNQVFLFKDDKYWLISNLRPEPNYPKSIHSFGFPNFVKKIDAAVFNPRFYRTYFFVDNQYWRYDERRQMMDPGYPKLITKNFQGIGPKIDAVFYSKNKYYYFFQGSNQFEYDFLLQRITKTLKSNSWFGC
Chain of 72 kDa type IV collagenase (P08253 whole entry): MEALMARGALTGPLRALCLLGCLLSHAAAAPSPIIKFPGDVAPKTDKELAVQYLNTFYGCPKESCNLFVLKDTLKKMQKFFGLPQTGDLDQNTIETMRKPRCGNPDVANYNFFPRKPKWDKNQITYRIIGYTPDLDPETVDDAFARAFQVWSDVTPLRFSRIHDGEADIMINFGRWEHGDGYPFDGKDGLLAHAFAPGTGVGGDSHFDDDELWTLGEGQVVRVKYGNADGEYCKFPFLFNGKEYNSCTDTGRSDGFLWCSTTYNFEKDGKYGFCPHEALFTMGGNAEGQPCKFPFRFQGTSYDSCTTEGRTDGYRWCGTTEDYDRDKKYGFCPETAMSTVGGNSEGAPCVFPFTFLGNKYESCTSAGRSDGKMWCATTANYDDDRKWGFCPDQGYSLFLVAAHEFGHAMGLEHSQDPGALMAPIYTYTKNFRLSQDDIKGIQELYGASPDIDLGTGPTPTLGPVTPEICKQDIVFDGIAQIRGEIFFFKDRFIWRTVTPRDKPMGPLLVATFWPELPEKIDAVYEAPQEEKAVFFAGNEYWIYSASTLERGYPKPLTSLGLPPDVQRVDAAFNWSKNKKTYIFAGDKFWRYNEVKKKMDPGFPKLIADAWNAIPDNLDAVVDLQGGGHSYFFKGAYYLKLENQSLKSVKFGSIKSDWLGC
Chain of Histone deacetylase 4 (P56524 whole entry): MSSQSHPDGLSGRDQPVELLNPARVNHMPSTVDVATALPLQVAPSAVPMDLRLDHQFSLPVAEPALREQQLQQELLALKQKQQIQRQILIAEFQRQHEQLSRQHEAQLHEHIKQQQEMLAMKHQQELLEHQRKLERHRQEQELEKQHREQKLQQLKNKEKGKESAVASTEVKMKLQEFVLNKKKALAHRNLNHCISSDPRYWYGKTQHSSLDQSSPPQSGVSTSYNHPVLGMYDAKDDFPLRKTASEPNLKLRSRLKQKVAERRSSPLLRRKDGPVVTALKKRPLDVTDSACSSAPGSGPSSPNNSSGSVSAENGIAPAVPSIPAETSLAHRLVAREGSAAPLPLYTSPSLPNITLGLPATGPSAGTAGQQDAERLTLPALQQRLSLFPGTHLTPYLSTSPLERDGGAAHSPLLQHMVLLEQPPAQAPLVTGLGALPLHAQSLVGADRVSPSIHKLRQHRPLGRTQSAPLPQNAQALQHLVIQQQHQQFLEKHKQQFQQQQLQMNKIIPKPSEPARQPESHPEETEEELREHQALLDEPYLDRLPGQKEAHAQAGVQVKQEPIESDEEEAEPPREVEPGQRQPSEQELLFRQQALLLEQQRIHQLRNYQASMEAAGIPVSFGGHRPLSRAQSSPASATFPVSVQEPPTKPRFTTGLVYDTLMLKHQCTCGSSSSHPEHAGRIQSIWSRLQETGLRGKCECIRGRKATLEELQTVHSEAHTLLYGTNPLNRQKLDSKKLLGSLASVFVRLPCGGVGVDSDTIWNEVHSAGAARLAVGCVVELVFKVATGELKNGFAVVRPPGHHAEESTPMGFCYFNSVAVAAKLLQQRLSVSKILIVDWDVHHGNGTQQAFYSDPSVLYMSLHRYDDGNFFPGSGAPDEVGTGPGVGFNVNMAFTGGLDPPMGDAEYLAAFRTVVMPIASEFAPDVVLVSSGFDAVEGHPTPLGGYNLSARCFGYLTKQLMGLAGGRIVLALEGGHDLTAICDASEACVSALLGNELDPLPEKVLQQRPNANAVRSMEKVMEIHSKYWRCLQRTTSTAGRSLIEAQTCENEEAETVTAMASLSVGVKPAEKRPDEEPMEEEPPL
Chain of Matrix metalloproteinase-9 (P14780 whole entry): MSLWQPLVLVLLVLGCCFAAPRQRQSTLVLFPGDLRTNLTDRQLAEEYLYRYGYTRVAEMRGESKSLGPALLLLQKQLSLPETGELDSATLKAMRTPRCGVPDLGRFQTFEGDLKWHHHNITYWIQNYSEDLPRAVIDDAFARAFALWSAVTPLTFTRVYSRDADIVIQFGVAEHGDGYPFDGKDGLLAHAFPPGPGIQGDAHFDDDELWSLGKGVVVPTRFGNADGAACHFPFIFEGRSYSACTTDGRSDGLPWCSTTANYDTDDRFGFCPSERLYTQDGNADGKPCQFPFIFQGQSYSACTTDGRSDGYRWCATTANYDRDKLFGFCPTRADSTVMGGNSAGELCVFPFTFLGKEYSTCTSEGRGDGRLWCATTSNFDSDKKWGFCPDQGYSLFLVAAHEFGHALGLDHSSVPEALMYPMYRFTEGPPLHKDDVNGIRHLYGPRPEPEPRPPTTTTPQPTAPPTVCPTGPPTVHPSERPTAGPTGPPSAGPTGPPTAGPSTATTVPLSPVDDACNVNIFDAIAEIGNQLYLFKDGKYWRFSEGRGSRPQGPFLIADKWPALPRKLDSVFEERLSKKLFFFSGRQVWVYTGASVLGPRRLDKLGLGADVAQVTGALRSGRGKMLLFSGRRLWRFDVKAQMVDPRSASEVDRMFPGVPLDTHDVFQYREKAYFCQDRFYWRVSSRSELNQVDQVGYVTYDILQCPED
Chain of Neutrophil collagenase (P22894 whole entry): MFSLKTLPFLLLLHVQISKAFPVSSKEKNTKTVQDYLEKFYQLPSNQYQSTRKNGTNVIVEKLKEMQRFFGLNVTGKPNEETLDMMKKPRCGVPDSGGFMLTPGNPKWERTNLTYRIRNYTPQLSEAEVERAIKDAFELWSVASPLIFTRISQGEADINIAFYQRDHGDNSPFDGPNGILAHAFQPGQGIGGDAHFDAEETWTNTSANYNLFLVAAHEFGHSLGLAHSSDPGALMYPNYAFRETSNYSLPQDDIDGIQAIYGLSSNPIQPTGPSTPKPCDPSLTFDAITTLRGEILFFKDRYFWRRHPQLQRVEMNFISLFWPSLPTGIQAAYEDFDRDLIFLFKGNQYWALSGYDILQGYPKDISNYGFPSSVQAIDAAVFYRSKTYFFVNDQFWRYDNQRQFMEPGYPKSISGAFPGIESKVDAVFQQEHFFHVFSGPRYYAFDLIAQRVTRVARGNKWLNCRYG

SMILES: COc1ccc(/C=C/C(=O)NO)c(-c2ccc3c(c2)OCO3)c1
- GI50 (HeLa): 2 µM
- IC50 (MCF7): 7.7 µM
- IC50 (MDA-MB-231): 9.5 µM

SMILES: O=C(/C=C/c1cccc(S(=O)(=O)Nc2ccccc2)c1)NO [BELINOSTAT]
- IC50 (Histone deacetylase 4): 0.015 µM
- GI50 (Jurkat [10]): 0.11 µM
- GI50 (MOLT-4 [11]): 0.12 µM
- IC50 [12]: 0.059 µM
- GI50 (THP-1): 0.075 µM

SMILES: O=C(CCCCCN1C(=O)c2cccc3cccc(c23)C1=O)NO
- IC50 (Jurkat [13]): 6.1 µM

Continued, in another order:

- IC50 (Histone deacetylase 8 [1]): ≤ 10 µM
- IC50 (Histone deacetylase): > 10 µM
SMILES: O=C(O)CC[C@H](NC(=O)Cc1ccc(Br)cc1)C(=O)NCc1ccc(F)cc1
- IC50 (Jurkat E6.1 [2]): 1.62 µM
- IC50 (U-937): > 35 µM
- IC50 (MOLT-4 [3]): > 35 µM
- IC50 (Jurkat E6.1 [4]): < 35 µM

- IC50 (Histone deacetylase 8 [1]): ≤ 10 µM
- IC50 [5]: 4.83 µM
- IC50 (Neutrophil collagenase): 206 µM
- IC50 [6]: 56.6 µM
- IC50 (Histone deacetylase): > 10 µM
- IC50 [7]: 6.4 µM
- IC50 (Histone deacetylase 8 [8]): 2.89 µM
- IC50 [9]: 138 µM
SMILES: O=C(O)CC[C@H](NC(=O)Cc1ccc(Br)cc1)C(=O)NCc1ccc([N+](=O)[O-])cc1
- IC50 (U-937): ≤ 35 µM
- IC50 (MOLT-4 [3]): ≤ 35 µM
- IC50 (Jurkat E6.1 [4]): ≤ 35 µM
